Reference: US5118681A (priority 1989, dated 1992)
Values after ≈ are worked out from the molar mass of the structure shown. Read-outs that look alike come from different tables or passages of the source.

Experiments:
Piricularia oryzae = assay: whole plant or invertebrate; format: in vivo; conditions: Pyricularia oryzae, read-out: % control RB
[1] = system: Pellicularia filamentosa (f. sp. sasiki); assay: whole plant or invertebrate; format: in vivo; conditions: 120 h; read-out: % control RSB
[2] = system: Erysiphe graminis (f. sp. tritici); assay: whole plant or invertebrate; format: in vivo; conditions: Blumeria graminis; read-out: % control WPM
Pseudomonas fluorescens = assay: Minimum Inhibitory Concentration Test, alternate (Table 4), Ps.fl; format: cell-based; conditions: Pseudomonas fluorescens, TSB, 72 hours, 30° C
Experimental: (§1) A 125 μl aliquot of 10,000 ppm test compound in acetone was added to 4.88 ml of TSB to provide a 250 ppm solution. From this solution, 100 μL was transferred to the first row of two microtiter plate columns. Both replicates and five additional compounds were all serially diluted 1:1 to a final concentration of 0.8 ppm in TSB.
(§2) Inoculation was accomplished by diluting a 24 hr Ps fl culture, four mls per 36 mls of phosphate buffer solution. A Dynatech autoinoculator was used to transfer 1.5 μl of this cell suspension to the microtiter plates. The plates were incubated at 30° C. for 3 days before the lowest concentration at which no growth occurs was recorded in the database. The SOK data and MIC test data on Ps.fl, Ps.ae, E.c, and S.a. bacteria and Candida albicans (C.alb), A.n and A.p fungi are listed in Table 4.

A.n = assay: Minimum Inhibitory Concentration Test, alternate (Table 4), A.n; format: cell-based, Aspergillus niger; conditions: Aspergillus niger, TSB, 72 hours
Experimental: as §1, §2

Phytophthora infestans = assay: whole plant or invertebrate; format: in vivo; conditions: Phytophthora infestans, in Solanum lycopersicum, 96 h, read-out: % control TLB
[3] = system: Pseudoperonospora cubensis; assay: whole plant or invertebrate; format: in vivo; conditions: Pseudoperonospora cubensis, in Cucumis sativus, 168 h; read-out: % control CDM
[4] = system: Puccinia recondita (f. sp. tritici Races PKB and PLD); assay: whole plant or invertebrate; format: in vivo
[5] = Puccinia recondita, 240 h; read-out: % control WLR

Row | Structure (SMILES) | pest or weed control at 200 ppm (Piricularia oryzae) [%] | pest or weed control at 200 ppm [1] [%] | pest or weed control at 200 ppm [2] [%] | MIC (Pseudomonas fluorescens) [µg/mL] | MIC (A.n) [µg/mL] | pest or weed control at 200 ppm (Phytophthora infestans) [%] | pest or weed control at 200 ppm [3] [%] | pest or weed control at 200 ppm [4, 5] [%] | pest or weed control at 100 ppm (Phytophthora infestans) [%] | pest or weed control at 100 ppm (Piricularia oryzae) [%] | pest or weed control at 100 ppm [1] [%] | pest or weed control at 100 ppm [2] [%] | pest or weed control at 100 ppm [3] [%] | pest or weed control at 100 ppm [4, 5] [%] | pest or weed control at 100 ppm ([4]; Puccinia recondita, 240 h, read-out: % control WLR) [%]
1 | CCCCCCCCNC(=O)/C=C\SC(C(=O)NCCC)C(=O)NCCC [Example 19, N-n-octyl-cis-3-[2-(N,N'-di-n-propylmalonodiamido)thio]acrylamide] | 0 | 0 | 25 | > 500 | > 500 | 89 | 95 | 62 | – | – | – | – | – | – | –
2 | CCCCCCCCNC(=O)/C=C\SC(C(=O)NCc1ccccc1)C(=O)OCC (stereo not drawn) [Example 20, N-n-octyl-cis-3-[2-(ethyl-N-benzylmalonamido)thio]acrylamide] | 90 | 0 | 0 | > 500 | > 500 | 90 | 100 | 75 | – | – | – | – | – | – | –
3 | CCCCCCCCNC(=O)/C=C\SC(C(=O)Nc1ccccc1Cl)C(=O)OCC (stereo not drawn) [Example 21, N-n-octyl-cis-3-{2-[ethyl-N-(2-chlorophenyl)malonamido]thio}acrylamide] | 100 | 0 | 62 | > 500 | 8 (≈ 17.6 µM) | 97 | 97 | 75 | – | – | – | – | – | – | –
4 | CCCCCCCCNC(=O)/C=C\SC(C(=O)NCc1ccc(Cl)cc1)C(=O)OCC (stereo not drawn) [Example 22, N-n-octyl-cis-3-{2-[ethyl-N-(4-chlorobenzyl)malonamido]thio}acrylamide] | 90 | 0 | 37 | > 500 | > 500 | – | 100 | 50 | 99 | – | – | – | – | – | –
5 | CCCCCCCCNC(=O)/C=C\SC(C(=O)Nc1cccc(OC)c1)C(=O)OCC (stereo not drawn) [Example 23, N-n-octyl-cis-3-{2-[ethyl-N-(3-methoxyphenyl)malonamido]thio}acrylamide] | 50 | 0 | 47 | > 500 | > 500 | 100 | 92 | 50 | – | – | – | – | – | – | –
6 | CCCCCCCCCCCCNC(=O)C(S/C=C\C(=O)NCCCCCCCC)C(=O)OCC (stereo not drawn) [Example 24, N-n-octyl-cis-3-[2-(ethyl-N-n-dodecylmalonamido)thio]acrylamide] | 0 | 0 | 0 | > 500 | 250 (≈ 488 µM) | 50 | 100 | 50 | – | – | – | – | – | – | –
7 | CCCCCCCCNC(=O)/C=C\SC(C(=O)Nc1nccs1)C(=O)OCC (stereo not drawn) [Example 25, N-n-octyl-cis-3-{2-[ethyl-N-(2-thiazoyl)malonamido]thio}acrylamide] | 0 | 50 | 0 | > 500 | > 500 | 80 | 100 | 75 | – | – | – | – | – | – | –
8 | CCCCCCCCCCNC(=O)C(S/C=C\C(=O)NCCCCCCCC)C(=O)OCC (stereo not drawn) [Example 26, N-n-octyl-cis-3-[2-(ethyl-N-n-decylmalonamido)thio]acrylamide] | 50 | 0 | 50 | > 500 | > 500 | 80 | 100 | 75 | – | – | – | – | – | – | –
9 | CCCCCCCCNC(=O)/C=C\SC(C(C)=O)C(=O)Nc1ccccc1 (stereo not drawn) [Example 31, N-n-octyl-cis-3-[2-(N-phenylacetoacetamido)thio]acrylamide] | 95 | 0 | 0 | 500 (≈ 1280 µM) | 250 (≈ 640 µM) | 95 | 100 | 50 | – | – | – | – | – | – | –
10 | CCCCCCCCNC(=O)/C=C\SC(C(=O)NCc1cccc(OC)c1)C(=O)OCC (stereo not drawn) [Example 32, N-n-octyl-cis-3-{2-[ethyl-N-(3-methoxybenzyl)malonamido]thio}acrylamide] | 95 | 0 | 0 | > 500 | 500 (≈ 1080 µM) | 100 | 99 | 75 | – | – | – | – | – | – | –
11 | CCCCCCCCNC(=O)/C=C\SC(C(=O)NCc1ccc(C)cc1)C(=O)OCC (stereo not drawn) [Example 33, N-n-octyl-cis-3-{2-[ethyl-N-(4-methylbenzyl)malonamido]thio}acrylamide] | 90 | 0 | 0 | > 500 | 250 to 500 (≈ 557 to 1110 µM) | 95 | 99 | 0 | – | – | – | – | – | – | –
12 | CCCCCCCCNC(=O)/C=C\SC(C(=O)Nc1ccc(Cl)cc1)C(=O)OCC (stereo not drawn) [Example 34, N-n-octyl-cis-3-{2-[ethyl-N-(4-chlorophenyl)malonamido]thio}acrylamide] | – | – | – | > 500 | > 500 | – | – | – | 50 | 0 | 0 | 50 | 85 | 50 | –
13 | CCCCCCCCNC(=O)/C=C\SC(C(=O)NCc1ccccc1Cl)C(=O)OCC (stereo not drawn) [Example 38, N-n-octyl-cis-3-{2-[ethyl-N-(2-chlorobenzyl)malonamido]thio}acrylamide] | – | – | – | > 500 | 125 to 250 (≈ 266 to 533 µM) | – | – | – | 95 | 50 | 0 | 0 | 99 | 0 | –
14 | CCCCCCCCNC(=O)/C=C\SC(C(=O)Nc1cccc(Cl)c1C)C(=O)OCC (stereo not drawn) [Example 39, N-n-octyl-cis-3-{2-[ethyl-N-(2-methyl-3-chlorophenyl)malonamido]thio}acrylamide] | – | – | – | > 500 | 500 (≈ 1070 µM) | – | – | – | 100 | 50 | 0 | 50 | 100 | 75 | –
15 | CCCCCCCCNC(=O)/C=C\SC(C(=O)NCc1cccc(C)c1)C(=O)OCC (stereo not drawn) [Example 40, N-n-octyl-cis-3-{2-[ethyl-N-(3-methylbenzyl)malonamido]thio}acrylamide] | – | – | – | > 500 | 125 to 250 (≈ 279 to 557 µM) | – | – | – | 100 | 50 | 0 | 0 | 99 | – | 75
16 | CCCCCCCCNC(=O)/C=C\SC(C(=O)Nc1ccc(Cl)c(Cl)c1)C(=O)OCC (stereo not drawn) [Example 52, N-n-octyl-cis-3-{2-[ethyl-N-(3,4-dichlorophenyl)malonamido]thio}acrylamide] | – | – | – | > 500 | > 500 | – | – | – | 80 | 80 | 0 | 0 | 99 | 0 | –
17 | CCCCCCCCNC(=O)/C=C\SC(C(=O)Nc1cc(Cl)cc(Cl)c1)C(=O)OCC (stereo not drawn) [Example 55, N-n-octyl-cis-3-{2-[ethyl-N-(3,5-dichlorophenyl)malonamido]thio}acrylamide] | – | – | – | > 500 | > 500 | – | – | – | 80 | 95 | 0 | 50 | 85 | 0 | –
18 | CCCCCCCCNC(=O)/C=C\SC(C(=O)NCc1ccccc1OC)C(=O)OCC (stereo not drawn) [Example 56, N-n-octyl-cis-3-{2-[ethyl-N-(2-methoxybenzyl)malonamido]thio}acrylamide] | – | – | – | > 500 | 250 (≈ 538 µM) | – | – | – | 80 | 90 | 0 | 0 | 100 | 0 | –
19 | CCCCCCCCNC(=O)/C=C\SC(C(C)=O)C(=O)Nc1ccccc1C (stereo not drawn) [Example 57, N-n-octyl-cis-3-{2-[N-(2-methylphenyl)acetoacetamido]thio}acrylamide] | – | – | – | > 500 | 250 (≈ 618 µM) | – | – | – | 0 | 80 | 100 | 50 | 0 | 0 | –
